Reference: patent US20240150423A1, “GLP-1 ANALOGUE-MODIFIED DIMERS WITH DIFFERENT CONFIGURATIONS, PREPARATION METHOD THEREOF, AND APPLICATION THEREOF IN TREATMENT OF TYPE II DIABETES” (Nanjing Finepeptide Biopharmaceutical Co.,Ltd, priority 2019, published 2024)
Non-standard residues stand in square brackets, D forms with d. No end group written: not given here. Aib = CC(C)(N)C(=O)O

System: Normal Kunming (KM) mice
Assay: multiple OGTT (mOGTT): hypoglycemic duration after a single administration
Type: in vivo
Conditions: monomeric peptides, single injection at the same dose (1.126 nmol), subcutaneous
Outline: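 Normal Kunming mice given a single dose, then oral glucose challenges; tail-blood glucose read by meter at 0, 10, 20, 40, 60 and 120 min. Duration scored as hypoglycemic period until group mean glucose exceeded the NaCl control twice.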

Substance | Hypoglycemic
His-aAib-Glu-Gly-Thr-Phe-Thr-Cys-Asp-Val-Ser-Ser-Tyr-Leu-Glu-Gly-Gln-Ala-Ala-Lys[N-ϵ-(N-α-Palmitoyl-γ-glutamyl)]-Glu-Phe-Ile-Ala-Trp-Leu-Val-Arg-Gly-Arg-Gly-OH (HXEGTFTCDVSSYLEGQAAXEFIAWLVRGRG; Aib; palmitoyl-gamma-Glu on Lys; C-terminal acid; Sequence is synthesized; (2)..(2) Xaa is aAib; (20)..(20) Xaa is 26Lys[N-e-(N-a-palmitoyl-L-g-glutamyl)]; (31)..(31) C-terminal) [G8 series 60] | 2 days
His-aAib-Glu-Gly-Thr-Phe-Thr-Cys-Asp-Val-Ser-Ser-Tyr-Leu-Glu-Gly-Gln-Ala-Ala-Lys[N-ϵ-(N-α-oleoyl-L-γ-glutamyl)]-Glu-Phe-Ile-Ala-Trp-Leu-Val-Arg-Gly-Arg-Gly-NH2 (HXEGTFTCDVSSYLEGQAAXEFIAWLVRGRG; Aib; oleoyl-gamma-Glu on Lys; C-terminal amide; Sequence is synthesized; (2)..(2) Xaa is aAib; (20)..(20) Xaa is 26Lys[N-e-(N-a-oleoyl-L-g-glutamyl)]; (31)..(31) N-terminal) [G8 series 62] | 5 days
His-aAib-Glu-Gly-Thr-Phe-Thr-Cys-Asp-Val-Ser-Ser-Tyr-Leu-Glu-Gly-Gln-Ala-Ala-Lys[N-ϵ-(N-α-oleoyl-L-γ-glutamyl)]-Glu-Phe-Ile-Ala-Trp-Leu-Val-Arg-Gly-Arg-Gly-OH (HXEGTFTCDVSSYLEGQAAXEFIAWLVRGRG; Aib; oleoyl-gamma-Glu on Lys; C-terminal acid; Sequence is synthesized; (2)..(2) Xaa is aAib; (20)..(20) Xaa is 26Lys[N-e-(N-a-oleoyl-L-g-glutamyl)]; (31)..(31) C-terminal) [G8 series 63] | 2 days
His-aAib-Glu-Gly-Thr-Phe-Thr-Ser-Asp-Val-Cys-Ser-Tyr-Leu-Glu-Gly-Gln-Ala-Ala-Lys[N-ϵ-(N-α-Palmitoyl)]-Glu-Phe-Ile-Ala-Trp-Leu-Val-Arg-Gly-Arg-Gly-NH2 (HXEGTFTSDVCSYLEGQAAXEFIAWLVRGRG; αAib; palmitoyl on Lys; C-terminal amide; Sequence is synthesized; (2)..(2) Xaa is aAib; (20)..(20) Xaa is 26Lys[N-e-(N-a-palmitoyl-L-g-glutamyl)]; (31)..(31) N-terminal) [G4 series 28] | 7 days
His-aAib-Glu-Gly-Thr-Phe-Thr-Ser-Asp-Val-Cys-Ser-Tyr-Leu-Glu-Gly-Gln-Ala-Ala-Lys[N-ϵ-(N-α-Palmitoyl-γ-glutamyl)]-Glu-Phe-Ile-Ala-Trp-Leu-Val-Arg-Gly-Arg-Gly-NH2 (HXEGTFTSDVCSYLEGQAAXEFIAWLVRGRG; αAib; palmitoyl-γ-glutamyl on Lys; C-terminal amide; Sequence is synthesized; (2)..(2) Xaa is aAib; (20)..(20) Xaa is 26Lys[N-e-(N-a-Palmitoyl-g-glutamyl)]; (31)..(31) N-terminal) [G2 series 12] | 6 days
His-aAib-Glu-Gly-Thr-Phe-Thr-Ser-Asp-Val-Cys-Ser-Tyr-Leu-Glu-Gly-Gln-Ala-Ala-Lys[N-ϵ-(N-α-Palmitoyl-γ-glutamyl)]-Glu-Phe-Ile-Ala-Trp-Leu-Val-Arg-Gly-Arg-Gly-OH (HXEGTFTSDVCSYLEGQAAXEFIAWLVRGRG; αAib; palmitoyl-γ-glutamyl on Lys; C-terminal acid; Sequence is synthesized; (2)..(2) Xaa is aAib; (20)..(20) Xaa is 26Lys[N-e-(N-a-Palmitoyl-g-glutamyl)]; (31)..(31) C-terminal) [G2 series 11] | 4 days
His-aAib-Glu-Gly-Thr-Phe-Thr-Ser-Asp-Val-Cys-Ser-Tyr-Leu-Glu-Gly-Gln-Ala-Ala-Lys[N-ϵ-(N-α-oleoyl)]-Glu-Phe-Ile-Ala-Trp-Leu-Val-Arg-Gly-Arg-Gly-NH2 (HXEGTFTSDVCSYLEGQAAXEFIAWLVRGRG; αAib; oleoyl on Lys; C-terminal amide; Sequence is synthesized; (2)..(2) Xaa is aAib; (20)..(20) Xaa is 26Lys[N-e-(N-a-oleoyl-L-g-glutamyl)]; (31)..(31) N-terminal) [G4 series 29] | 7 days
His-aAib-Glu-Gly-Thr-Phe-Thr-Ser-Asp-Val-Cys-Ser-Tyr-Leu-Glu-Gly-Gln-Ala-Ala-Lys[N-ϵ-(N-α-oleoyl-L-γ-glutamyl)]-Glu-Phe-Ile-Ala-Trp-Leu-Val-Arg-Gly-Arg-Gly-NH2 (HXEGTFTSDVCSYLEGQAAXEFIAWLVRGRG; αAib; oleoyl-γ-glutamyl on Lys; C-terminal amide; Sequence is synthesized; (2)..(2) Xaa is aAib; (20)..(20) Xaa is 26Lys[N-e-(N-a-oleoyl-L-g-glutamyl)]; (31)..(31) N-terminal) [G2 series 13] | 7 days
His-aAib-Glu-Gly-Thr-Phe-Thr-Ser-Asp-Val-Cys-Ser-Tyr-Leu-Glu-Gly-Gln-Ala-Ala-Lys[N-ϵ-(N-α-oleoyl-L-γ-glutamyl)]-Glu-Phe-Ile-Ala-Trp-Leu-Val-Arg-Gly-Arg-Gly-OH (HXEGTFTSDVCSYLEGQAAXEFIAWLVRGRG; αAib; oleoyl-γ-glutamyl on Lys; C-terminal acid; Sequence is synthesized; (2)..(2) Xaa is aAib; (20)..(20) Xaa is 26Lys[N-e-(N-a-oleoyl-L-g-glutamyl)]; (31)..(31) C-terminal) [G2 series 14] | 4 days
His-aAib-Glu-Gly-Thr-Phe-Thr-Ser-Asp-Val-Ser-Cys--Tyr-Leu-Glu-Gly-Gln-Ala-Ala-Lys[N-ϵ-(N-α-oleoyl-L-γ-glutamyl)]-Glu-Phe-Ile-Ala-Trp-Leu-Val-Arg-Gly-Arg-Gly-NH2 (HXEGTFTSDVSCYLEGQAAXEFIAWLVRGRG; Aib; oleoyl-gamma-Glu on Lys; C-terminal amide; Sequence is synthesized; (2)..(2) Xaa is aAib; (20)..(20) Xaa is 26Lys[N-e-(N-a-oleoyl-L-g-glutamyl)]; (31)..(31) N-terminal) [G6 series 47] | 8 days
His-aAib-Glu-Gly-Thr-Phe-Thr-Ser-Asp-Val-Ser-Cys-Tyr-Leu-Glu-Gly-Gln-Ala-Ala-Lys-Glu-Phe-Ile-Ala-Trp-Leu-Val-Arg-aAib-Arg-NH2 (H[Aib]EGTFTSDVSCYLEGQAAKEFIAWLVR[Aib]R-NH2; also: disulfide-linked homodimer via Cys) [G7 series 51] | 3 days
His-aAib-Glu-Gly-Thr-Phe-Thr-Ser-Asp-Val-Ser-Cys-Tyr-Leu-Glu-Gly-Gln-Ala-Ala-Lys-Glu-Phe-Ile-Ala-Trp-Leu-Val-Arg-aAib-Arg-OH (H[Aib]EGTFTSDVSCYLEGQAAKEFIAWLVR[Aib]R-OH; also: disulfide-linked homodimer via Cys) [G7 series 52] | 1 days
His-aAib-Glu-Gly-Thr-Phe-Thr-Ser-Asp-Val-Ser-Cys-Tyr-Leu-Glu-Gly-Gln-Ala-Ala-Lys-Glu-Phe-Ile-Ala-Trp-Leu-Val-Lys-aAib-Arg-NH2 (H[Aib]EGTFTSDVSCYLEGQAAKEFIAWLVK[Aib]R-NH2; also: disulfide-linked homodimer via Cys) [G7 series 53] | 3 days
His-aAib-Glu-Gly-Thr-Phe-Thr-Ser-Asp-Val-Ser-Cys-Tyr-Leu-Glu-Gly-Gln-Ala-Ala-Lys[N-ϵ-(N-α-Palmitoyl)]-Glu-Phe-Ile-Ala-Trp-Leu-Val-Arg-Gly-Arg-Gly-NH2 (HXEGTFTSDVSCYLEGQAAXEFIAWLVRGRG; not fully specified; Aib; palmitoyl on Lys side chain; C-terminal amide; Sequence is synthesized; (2)..(2) Xaa is aAib; (20)..(20) Xaa is 26Lys[N-e-(N-a-palmitoyl-L-g-glutamyl)]; (31)..(31) N-terminal) [G4 series 37] | 7 days
His-aAib-Glu-Gly-Thr-Phe-Thr-Ser-Asp-Val-Ser-Cys-Tyr-Leu-Glu-Gly-Gln-Ala-Ala-Lys[N-ϵ-(N-α-Palmitoyl-L-γ-glutamyl)]-Glu-Phe-Ile-Ala-Trp-Leu-Val-Arg-Gly-Arg-Gly-NH2 (HXEGTFTSDVSCYLEGQAAXEFIAWLVRGRG; Aib; palmitoyl-gamma-Glu on Lys; C-terminal amide; Sequence is synthesized; (2)..(2) Xaa is aAib; (20)..(20) Xaa is 26Lys[N-e-(N-a-palmitoyl-L-g-glutamyl)]; (31)..(31) N-terminal) [G6 series 48] | 7 days
His-aAib-Glu-Gly-Thr-Phe-Thr-Ser-Asp-Val-Ser-Cys-Tyr-Leu-Glu-Gly-Gln-Ala-Ala-Lys[N-ϵ-(N-α-Palmitoyl-L-γ-glutamyl)]-Glu-Phe-Ile-Ala-Trp-Leu-Val-Arg-Gly-Arg-Gly-OH (HXEGTFTSDVSCYLEGQAAXEFIAWLVRGRG; Aib; palmitoyl-gamma-Glu on Lys; C-terminal acid; Sequence is synthesized; (2)..(2) Xaa is aAib; (20)..(20) Xaa 26Lys[N-e-(N-a-palmitoyl-L-g-glutamyl)]; (31)..(31) C-terminal) [G6 series 45] | 4 days
His-aAib-Glu-Gly-Thr-Phe-Thr-Ser-Asp-Val-Ser-Cys-Tyr-Leu-Glu-Gly-Gln-Ala-Ala-Lys[N-ϵ-(N-α-Palmitoyl-L-γ-glutamyl)]-Glu-Phe-Ile-Ala-Trp-Leu-Val-Lys[N-ϵ-(N-α-Palmitoyl-L-γ-glutamyl)]-Gly-Arg-Gly-NH2 (HXEGTFTSDVSCYLEGQAAXEFIAWLVXGRG; Aib; two palmitoyl-gamma-Glu on Lys; C-terminal amide; Sequence is synthesized; (2)..(2) Xaa is aAib; (20)..(20) Xaa is 26Lys[N-e-(N-a-palmitoyl-L-g-glutamyl)]; (28)..(28) Xaa is 26Lys[N-e-(N-a-palmitoyl-L-g-glutamyl)]; (31)..(31) N-terminal) [G5 series 42] | 3 days
